Measured values as given in patent publication US10206907B2, “Compounds useful for the treatment of degenerative and inflammatory diseases” (GALAPAGOS NV, priority 2008, dated 2019).

Assays:
[1] = Microsomal stability, rat liver microsomes; format: in vitro ADME; conditions: percentage of compound remaining after 60 minutes, 3 μM compound
Method: (§1) 40 μL of deionised water was added to a well of a polypropylene Matrix 2D barcode labelled storage tube (Thermo Scientific) and pre-incubated at 37° C.
(§2) A co-factor containing MgCl2, glucose-6-phosphate and NADP+ was prepared in deionised water and placed on ice before use.
(§3) A final working solution containing liver microsomes (Xenotech of a species of interest (human, mouse, rat, dog), previously described G6PDH and co-factors was prepared and this mix was incubated for no longer than 20 minutes at room temperature.
(§4) 30 μL of the pre-heated compound dilution was added to 40 μL of pre-heated water in the Matrix tubes and 30 μL of the microsomal mix was added.
(§5) To measure percentage remaining of compound at time zero MeOH or ACN was added (1:1) to the well before adding the microsomal mix.
(§6) The samples which were not stopped are incubated at 37° C., 300 rpm and after 1 hour of incubation the reaction was stopped with MeOH or ACN (1:1).
(§7) After stopping the reaction the samples were mixed and placed on ice for 30 min to precipitate the proteins.
(§8) The samples were analyzed on LCMS with a flow rate of 1 mL/min. Solvent A was 15 mM ammonia and solvent B was methanol or acetonitrile, depending on the stop solution used. […] The percentage remaining after 1 hour incubation was calculated from time 0 and was calculated as the percentage remaining.
(§9) The data on microsomal stability are expressed as a percentage of the total amount of compound remaining after 60 minutes.

[2] = Microsomal stability, human liver microsomes; format: in vitro ADME; conditions: percentage of compound remaining after 60 minutes, 3 μM compound
Method: as §1, §2, §3, §4, §5, §6, §7, §8, §9

[3] = target: Recombinant human JAK1 catalytic domain (Homo sapiens (Human), UniProt P23458); assay: JAK1 inhibition assay; format: biochemical; conditions: semi-quantitative score
Summary of the method: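 IC50 values come from dose-response series, with each point expressed as percent inhibition of cpm. Vehicle sets full activity and 10 μM staurosporine sets background. Incorporated radioactivity counted by scintillation after washing with 75 mM phosphoric acid.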

MMP13 in SW1353 cells = assay: OSM/IL-1β signaling assay (MMP13 levels in SW1353 cells); format: cell-based; conditions: Homo sapiens; SW1353 cells, OSM and IL-1β triggered, MMP13 levels 48 hours after triggering; read-out: MMP13 EC50;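 also: secreted MMP13 captured by antibody, activated with APMA and its activity read by fluorescence, inhibition scaled between vehicle-treated triggered wells (0%) and untriggered wells (100%)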
[4] = test system: JAK-STAT signalling in HeLa cells; assay: JAK-STAT signalling assay (OSM-triggered pSTAT1(2)-luciferase reporter in HeLa cells); format: cell-based; conditions: Homo sapiens; HeLa cells, OSM-triggered pSTAT1(2)-luciferase reporter; read-out: STAT signalling EC50
Method: HeLa cells were maintained in Dulbecco's Modified Eagle's Medium (DMEM) containing 10% heat inactivated fetal calf serum, 100 U/mL penicillin and 100 μg/mL streptomycin. HeLa cells were used at 70% confluence for transfection. 20,000 cells in 87 μL cell culture medium were transiently transfected with 40 ng pSTAT1(2)-luciferase reporter (Panomics), 8 ng of LacZ reporter as internal control reporter and 52 ng of pBSK using 0.32 μL Jet-PEI (Polyplus) as transfection reagent per well in 96-well plate format. After overnight incubation at 37° C., 10% CO2, transfection medium was removed.
40 μL of cell lysate was used to read β-galactosidase activity by adding 180 μL βGal solution (30 μl ONPG 4 mg/mL+150 μL β-Galactosidase buffer (0.06 M Na2HPO4, 0.04 M NaH2PO4, 1 mM MgCl2)) for 20 min.
Luciferase activity was measured using 40 μL cell lysate plus 40 μl of Steadylite® as described by the manufacturer (Perkin Elmer), on the Envision (Perkin Elmer).
The positive and negative controls were used to calculate z’ and ‘percent inhibition’ (PIN) values.
PIN values were plotted for compounds tested in dose-response and EC50 values were derived.

[5] = target: Recombinant human JAK2 catalytic domain (Homo sapiens (Human), UniProt O60674); assay: JAK2 inhibition assay; format: biochemical; conditions: semi-quantitative score
Summary of the method: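 Activity was taken as vehicle cpm minus cpm with 10 μM staurosporine, and inhibition was expressed on that scale. Incubation was 90 min at 30 °C, followed by acid quench, phosphoric acid washes and Microscint counting. Compounds were tested as dose series to obtain IC50.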

Chain of Recombinant human JAK2 catalytic domain (O60674 808-1132): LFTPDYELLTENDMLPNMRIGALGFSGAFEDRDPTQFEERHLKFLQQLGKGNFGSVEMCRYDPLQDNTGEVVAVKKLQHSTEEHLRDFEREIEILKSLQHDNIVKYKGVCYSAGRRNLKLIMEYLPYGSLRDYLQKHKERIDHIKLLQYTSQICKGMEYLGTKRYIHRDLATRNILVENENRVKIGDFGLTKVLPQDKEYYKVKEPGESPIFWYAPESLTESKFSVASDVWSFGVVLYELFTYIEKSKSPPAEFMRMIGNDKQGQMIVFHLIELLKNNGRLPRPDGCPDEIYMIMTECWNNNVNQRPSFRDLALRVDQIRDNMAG
Chain of Recombinant human JAK1 catalytic domain (P23458 850-1154): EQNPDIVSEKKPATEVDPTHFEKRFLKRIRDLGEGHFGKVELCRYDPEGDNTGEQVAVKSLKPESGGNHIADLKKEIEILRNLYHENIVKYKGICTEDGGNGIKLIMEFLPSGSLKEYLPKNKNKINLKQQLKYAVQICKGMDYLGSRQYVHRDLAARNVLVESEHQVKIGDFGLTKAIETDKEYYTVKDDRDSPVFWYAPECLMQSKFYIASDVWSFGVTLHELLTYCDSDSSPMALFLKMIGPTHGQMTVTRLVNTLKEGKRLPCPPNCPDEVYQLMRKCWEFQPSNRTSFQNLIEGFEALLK

Compound: O=C(Nc1nc2cccc(-c3ccc(OCc4ccc(-c5cn[nH]c5)nc4)cc3)n2n1)C1CC1 [Compound 166]
- Microsomal Stability Rat (%) [1]: * (* 0-25)
- Microsomal Stability Human (%) [2]: *** (*** 51-75)
- IC50 [3]: < 0.1 µM
- EC50 (MMP13 in SW1353 cells): > 1 µM
- EC50 [4]: > 1 µM

Compound: O=C(NC1CCCCC1)c1ccc(-c2cccc3nc(NC(=O)C4CC4)nn23)cc1 [Compound 26, N-cyclohexyl-4-(2-(cyclopropanecarboxamido)-[1,2,4]triazolo[1,5-a]pyridin-5-yl)benzamide]
- IC50 [3]: 0.101 to 0.5 µM
- EC50 (MMP13 in SW1353 cells): > 1 µM
- IC50 [5]: 0.101 to 0.5 µM
- EC50 [4]: > 1 µM

Compound: O=C(Nc1cccnn1)c1ccc(-c2cccc3nc(NC(=O)C4CC4)nn23)cc1 [Compound 221, 4-[2-(Cyclopropanecarbonyl-amino)-[1,2,4]triazolo[1,5-a]pyridin-5-yl]-N-pyridazin-3-yl-benzamide]
- IC50 [3]: < 0.1 µM
- EC50 (MMP13 in SW1353 cells): > 1 µM
- IC50 [5]: 0.101 to 0.5 µM
- EC50 [4]: > 1 µM

Compound: O=C(Nc1ccc(N2CCOCC2)nc1)c1ccc(-c2cccc3nc(NC(=O)C4CC4)nn23)cc1 [Compound 204, 4-[2-(Cyclopropanecarbonyl-amino)-[1,2,4]triazolo[1,5-a]pyridin-5-yl]-N-(6-morpholin-4-yl-pyridin-3-yl)-benzamide]
- Microsomal Stability Rat (%) [1]: * (* 0-25)
- Microsomal Stability Human (%) [2]: * (* 0-25)
- IC50 [3]: < 0.1 µM
- EC50 [4]: > 1 µM

Compound: O=C(Nc1nc2cccc(-c3ccc(C(=O)N4CCCNCC4)cc3)n2n1)C1CC1 [Compound 28, N-(5-(4-(1,4-diazepane-1-carbonyl)phenyl)-[1,2,4]triazolo[1,5-a]pyridin-2-yl)cyclopropanecarboxamide]
- IC50 [3]: 0.101 to 0.5 µM
- EC50 (MMP13 in SW1353 cells): > 1 µM
- IC50 [5]: > 1 µM
- EC50 [4]: > 1 µM

Compound: COc1ccc(CN(C)C(=O)c2ccc(-c3cccc4nc(NC(=O)C5CC5)nn34)cc2)cc1 [Compound 31, 4-(2-(cyclopropanecarboxamido)-[1,2,4]triazolo[1,5-a]pyridin-5-yl)-N-(4-methoxybenzyl)-N-methylbenzamide]
- IC50 [3]: < 0.1 µM
- EC50 (MMP13 in SW1353 cells): > 1 µM
- IC50 [5]: 0.101 to 0.5 µM
- EC50 [4]: > 1 µM

Compound: CC(C)(C)C1CCN(C(=O)c2ccc(-c3cccc4nc(NC(=O)C5CC5)nn34)cc2)CC1 [Compound 27, N-(5-(4-(4-tert-butylpiperidine-1-carbonyl)phenyl)-[1,2,4]triazolo[1,5-a]pyridin-2-yl)cyclopropanecarboxamide]
- IC50 [3]: 0.101 to 0.5 µM
- EC50 (MMP13 in SW1353 cells): > 1 µM
- IC50 [5]: 0.501 to 1 µM
- EC50 [4]: > 1 µM

Compound: O=C(Nc1cccnc1)c1ccc(-c2cccc3nc(NC(=O)C4CC4)nn23)cc1 [Compound 206, 4-[2-(Cyclopropanecarbonyl-amino)-[1,2,4]triazolo[1,5-a]pyridin-5-yl]-N-pyridin-3-yl-benzamide]
- Microsomal Stability Rat (%) [1]: *** (*** 51-75)
- Microsomal Stability Human (%) [2]: **** (**** 76-100)
- IC50 [3]: < 0.1 µM
- IC50 [5]: 0.101 to 0.5 µM
- EC50 [4]: > 1 µM

Compound: O=C(Nc1nc2cccc(-c3ccc(C(=O)N4CCC(COc5cccnc5)CC4)cc3)n2n1)C1CC1 [Compound 292, Cyclopropanecarboxylic acid (5-{4-[4-(pyridin-3-yloxymethyl)-piperidine-1-carbonyl]-phenyl}-[1,2,4]triazolo[1,5-a]pyridin-2-yl)-amide]
- IC50 [3]: < 0.1 µM
- EC50 (MMP13 in SW1353 cells): > 1 µM
- IC50 [5]: 0.101 to 0.5 µM
- EC50 [4]: > 1 µM

Compound: O=C(Nc1nc[nH]n1)c1ccc(-c2cccc3nc(NC(=O)C4CC4)nn23)cc1 [Compound 331, 4-[2-(Cyclopropanecarbonyl-amino)-[1,2,4]triazolo[1,5-a]pyridin-5-yl]-N-(1H-1,2,4-triazol-3-yl)-benzamide]
- Microsomal Stability Rat (%) [1]: * (* 0-25)
- Microsomal Stability Human (%) [2]: * (* 0-25)
- IC50 [3]: 0.101 to 0.5 µM
- IC50 [5]: < 0.1 µM

Compound: O=C(Nc1nc2cccc(-c3ccc(COc4ccccc4)cc3)n2n1)C1CC1 [Compound 238, Cyclopropanecarboxylic acid [5-(4-phenoxymethyl-phenyl)-[1,2,4]triazolo[1,5-a]pyridin-2-yl]-amide]
- IC50 [3]: < 0.1 µM
- EC50 (MMP13 in SW1353 cells): > 1 µM
- IC50 [5]: < 0.1 µM
- EC50 [4]: 0.501 to 1 µM

Compound: O=C(Nc1nc2cccc(-c3ccc(CNc4cccnn4)cc3)n2n1)C1CC1 [Compound 222, Cyclopropanecarboxylic acid {5-[4-(pyridazin-3-ylaminomethyl)-phenyl]-[1,2,4]triazolo[1,5-a]pyridin-2-yl}-amide]
- IC50 [3]: < 0.1 µM
- EC50 (MMP13 in SW1353 cells): > 1 µM
- IC50 [5]: 0.101 to 0.5 µM
- EC50 [4]: > 1 µM

Compound: O=C(Nc1nc2cccc(-c3ccc(C(=O)N4CCCC(CO)C4)cc3)n2n1)C1CC1 (centres unmarked) [Compound 276, Cyclopropanecarboxylic acid {5-[4-(3-hydroxymethyl-piperidine-1-carbonyl)-phenyl]-[1,2,4]triazolo[1,5-a]pyridin-2-yl}-amide]
- IC50 [3]: < 0.1 µM
- EC50 (MMP13 in SW1353 cells): > 1 µM
- IC50 [5]: 0.101 to 0.5 µM
- EC50 [4]: > 1 µM

Compound: O=C(NC1CC1)c1ccc(-c2cccc3nc(NC(=O)C4CC4)nn23)cc1 [Compound 11, 4-(2-(cyclopropanecarboxamido)-[1,2,4]triazolo[1,5-a]pyridin-5-yl)-N-cyclopropylbenzamide]
- Microsomal Stability Rat (%) [1]: **** (**** 76-100)
- Microsomal Stability Human (%) [2]: **** (**** 76-100)
- IC50 [3]: 0.101 to 0.5 µM

Compound: O=C(Nc1nc2cccc(-c3ccc(CN4CCOC(c5ccccc5)C4)cc3)n2n1)C1CC1 (centres unmarked) [Compound 231]
- IC50 [3]: < 0.1 µM
- EC50 (MMP13 in SW1353 cells): 0.001 to 0.5 µM
- IC50 [5]: 0.101 to 0.5 µM
- EC50 [4]: > 1 µM

Compound: O=C(Nc1ccc(-c2cccc3nc(NC(=O)C4CC4)nn23)cc1)c1ccc(C(F)(F)F)cc1 [Compound 22, N-(4-(2-(cyclopropanecarboxamido)-[1,2,4]triazolo[1,5-a]pyridin-5-yl)phenyl)-4-(trifluoromethyl)benzamide]
- IC50 [3]: 0.101 to 0.5 µM
- EC50 (MMP13 in SW1353 cells): > 1 µM
- IC50 [5]: 0.101 to 0.5 µM
- EC50 [4]: > 1 µM

Compound: O=C(Nc1nc2cccc(-c3ccc(C(=O)N4CCCC(O)C4)cc3)n2n1)C1CC1 (centres unmarked) [Compound 270, Cyclopropanecarboxylic acid {5-[4-(3-hydroxy-piperidine-1-carbonyl)-phenyl]-[1,2,4]triazolo[1,5-a]pyridin-2-yl)-amide]
- IC50 [3]: < 0.1 µM
- EC50 (MMP13 in SW1353 cells): > 1 µM
- IC50 [5]: 0.101 to 0.5 µM
- EC50 [4]: > 1 µM

Compound: COc1ccc(NC(=O)c2ccc(-c3cccc4nc(NC(=O)C5CC5)nn34)cc2)cn1 [Compound 203, 4-[2-(Cyclopropanecarbonyl-amino)-[1,2,4]triazolo[1,5-a]pyridin-5-yl]-N-(6-methoxy-pyridin-3-yl)-benzamide]
- Microsomal Stability Rat (%) [1]: *** (*** 51-75)
- Microsomal Stability Human (%) [2]: * (* 0-25)
- IC50 [3]: < 0.1 µM
- IC50 [5]: 0.101 to 0.5 µM
- EC50 [4]: > 1 µM

Compound: CN(C)C1CCN(C(=O)c2ccc(-c3cccc4nc(NC(=O)C5CC5)nn34)cc2)C1 (centres unmarked) [Compound 289, Cyclopropanecarboxylic acid {5-[4-(3-dimethylamino-pyrrolidine-1-carbonyl)-phenyl]-[1,2,4]triazolo[1,5-a]pyridin-2-yl}-amide]
- IC50 [3]: < 0.1 µM
- EC50 (MMP13 in SW1353 cells): > 1 µM
- IC50 [5]: 0.501 to 1 µM
- EC50 [4]: > 1 µM

Compound: CN(Cc1ccccc1)c1ccc(-c2cccc3nc(NC(=O)C4CC4)nn23)cc1 [Compound 157, N-(5-(4-(benzyl(methyl)amino)phenyl)-[1,2,4]triazolo[1,5-a]pyridin-2-yl)cyclopropanecarboxamide]
- Microsomal Stability Rat (%) [1]: * (* 0-25)
- Microsomal Stability Human (%) [2]: * (* 0-25)
- IC50 [3]: < 0.1 µM
- EC50 [4]: > 1 µM

Compound: NC(=O)C1CCCCN1C(=O)c1ccc(-c2cccc3nc(NC(=O)C4CC4)nn23)cc1 (centres unmarked) [Compound 275, 1-{4-[2-(Cyclopropanecarbonyl-amino)-[1,2,4]triazolo[1,5-a]pyridin-5-yl]-benzoyl}-piperidine-2-carboxylic acid amide]
- IC50 [3]: < 0.1 µM
- EC50 (MMP13 in SW1353 cells): > 1 µM
- IC50 [5]: 0.101 to 0.5 µM
- EC50 [4]: > 1 µM
